Laboratory results published in patent US20110177002A1, “CYLIC POLYAMINES FOR BINDING PHOSPHATIDYLSERINE” (BAYER SCHERING PHARMA AKTIENGESELLSCHAFT, priority 2008, published 2011).

What was measured:
[1] = Zn^2+ complexation; cited from earlier work
[2] = tested on: apoptotic liver; test: Biodistribution after induction of hepatic apoptosis with Cycloheximid; assay type: in vivo, male Balb/c mice; settings: i.v., 3.5 h after induction of hepatic apoptosis
Procedure: The biodistribution was performed in male Balb/c mice (6-8 weeks, body weight approx. 20 g). Hepatic apoptosis were induced by intraperitoneal injection of Cycloheximid ([…] in 500 μL PBS) (J. F. Tait, C. Smith, Z. Levashova, B. Patel, F. G. Blankenberg, J. Vanderheyden, J. Nucl. Med. 2006, 47, 1546). 1.5 h and 3.5 h after induction of hepatic apoptosis the 18F-labeled compound was injected i.v. (1-2 MBq in 100 μL PBS). The organ distribution was done after 30 min, 1 h, 2 h and 3 h. The amount of 18F-compound was determined by gamma counter.

[3] = tested on: adenocarcinoma (Prostata) R3327-ATI; test: PET imaging in radiation tumor model; assay type: in vivo, Male Copenhagen rats; settings: day 6 and day 10 after 50 Gy radiation, i.v.
Description: The PET images were obtained using a radiation model. Male Copenhagen rats with approx. 180 g body weight were transplanted with the hormone independent adenocarcinoma (Prostata) R3327-ATI on the left and right upper leg. The left tumor, as it reached a size of 3.5 cm^3 was radiated by linear particle accelerator with a single dosis of 50 Gy, whereas the right tumor served as control.
One day prior to the radiation as well as 6 and 10 d after radiation, the 18F-compound 19 (15-25 MBq in ca. 200 μL PBS) was injected i.v. and PET-aquisition with 1 h dynamic PET measurements were performed.

[4] = tested on: staurosporine treated Jurkat cells; test: FACS flow cytometry, apoptosis detection on staurosporine treated Jurkat cells with propidium iodide discrimination; assay type: cell-based; settings: for labeling pattern in direct comparison with Annexin-V: apoptosis induced Jurkat cells, co-incubation, FIG. 10
Description: Flow cytometry is a technology for counting and examining cells which pass in a flow of single cells through a laser beam. The laser light scatter provides information about cell features. The forward scatter (FSC) depends basically on the size of the cell, whereas the side scatter (SSC) is used to measure the granularity of the cell. Furthermore, if the cells carry fluorescence dyes, the respective fluorescence signal can be detected.
Flow cytometry is a widely applied technique in cell biology. Especially in the research of cell death mechanisms it is a standard procedure to count and differentiate between apoptotic, necrotic and healthy cells. For the detection of apoptosis the protein Annexin V is applied which is usually attached to a green fluorescence dye. Because Annexin V can also bind to necrotic cells, the red fluorescent nuclear stain propidium iodide is simultaneously applied as a necrosis marker.
The resulting fluorescence diagrams that are obtained from a flow cytometry procedure with Annexin V and propidium iodide are shown below. The detection channel for green fluorescence is termed FL-I (FIG. 4), the one for red fluorescence FL-III (FIG. 4). The plot of cell number (counts) versus FL-I intensity is called histogram. The fluorescence signal of the sample is always accompanied by a second signal at low intensities (left in the histogram) which is background fluorescence. By plotting the red fluorescence versus the green fluorescence (FL-I/FL-III-plot) a diagram is obtained in which the cells can be divided into red, green and red+green fluorescent cells. After gating the signals into four quadrant regions (Q1-Q4) (FIG. 4), the percentages of the differently stained cells is indicated in the diagram.
FACS measurements were performed with a DAKO Galaxy Flow Cytometry System using the following experimental setup: Jurkat-cells were grown to a density of about 1*10^6 cells/ml. Apoptosis was induced by adding 1 μmol/l staurosporine (Stepczynska A et al, Staurosporine and conventional anticancer drugs induce overlapping, yet distinct pathways of apoptosis and caspase activation, Oncogene (2001) 20, 1193). After incubation for 4 h at 37° C., the cells were washed with cold PBS-buffer (140 mmol/l NaCl, 10 mmol/l KCl, 6.4 mmol/l Na2HPO4, 2 mmol/l KH2PO4) and resuspended in cold TES-buffer (5 mmol/l TES, 145 mmol/l NaCl). 10^6 cells in 100 μl buffer with 1 μl of a 0.5 mmol/l aqueous solution of complex 1 were incubated for 15 minutes at 37° C. Subsequently, cells were washed twice with 500 μl TES-buffer and the cells were resuspended in 400 μl TES-buffer. 100 μl of the probe were diluted with 900 μl of buffer and measured immediately. To discriminate against necroses, 10 μl propidiumiodide solution (250 μg/ml) were added directly before the measurement.

[5] = tested on: Jurkat cells induced with staurosporin; test: Confocal microscopy on apoptosis induced Jurkat cells; assay type: cell-based; settings: 5 μM compound, 15 min at RT
Procedure: In order to verify the FACS data with visual data confocal microscopy was performed. Confocal microscopy was also performed on Jurkat cells and apoptosis was induced by incubating 10^6 cells/ml in 1 μM staurosporin for 4 h (Stepczynska A et al, Staurosporine and conventional anticancer drugs induce overlapping, yet distinct pathways of apoptosis and caspase activation Oncogene (2001) 20, 1193). The experiments were also carried out in TES-buffer. For compound binding 10^6 cells (either induced with staurosporin or non-induced) were incubated for 15 min at RT in 100 μl cold TES buffer with a final concentration of 5 μM compound, then the cells were fixed onto polylysine coated slides and shortly incubated with propidium iodine (PI).

[6] = tested on: cells which expose phosphatidylserine; settings: cited from earlier work

c1ccc(CNCc2ccccn2)nc1 [DPA, 2,2-dipicolylamine]
stability constant [1]: 10^5 (mol/l)^−1

[18F]CCOc1cc(CN2CCNCCNCCNCC2)cc(CN2CCNCCNCCNCC2)c1 [compound 19]
time the liver signal was stable [2]: more than 3 h | accumulation in the apoptotic liver ([2]; as early as 30 min after injection): accumulation in the apoptotic liver | accumulation in irradiated tumor in comparison to the control tumor (PET) [3]: increase in accumulation

CCN(CC)c1ccc2c(-c3ccc(NC(=S)NCCOCCOCCOc4cc(CN5CCNCCNCCNCC5)cc(CN5CCNCCNCCNCC5)c4)cc3C(=O)O)c3ccc(=[N+](CC)CC)cc-3oc2c1 [compound AB]
labeling pattern in direct comparison with Annexin-V [4]: labeling apoptotic cells in Q2 and necrotic cells in Q4 | uptake / labeling of cells in confocal microscopy [5]: labeling of apoptotic and necrotic cells

O=C(NCCOCCOCCOc1cc(COc2cc(CN3CCNCCNCCNCC3)cc(CN3CCNCCNCCNCC3)c2)cc(COc2cc(CN3CCNCCNCCNCC3)cc(CN3CCNCCNCCNCC3)c2)c1)c1ccc(-c2c3ccc(=O)cc-3oc3cc(O)ccc23)c(C(=O)O)c1 [compound we]
median fluorescence intensity ([4]; induced apoptotic Jurkat cells, FIG. 11): 130 | effect of Zn^2+ complexation on binding ([4]; with versus without Zn^2+): same effect

Anx V: phosphatidylserine-binding protein, fluorescent dye labeled, standard apoptosis sensor
labeling pattern in direct comparison with Annexin-V [4]: labels apoptotic cells in Q1 and Q2 | % apoptosis (green) ([4]; staurosporine treated Jurkat cells, green fluorescence only): 22% | % necrosis (PI) (red) ([4]; staurosporine treated Jurkat cells, propidium iodide red only): 18% | % necrosis/ late apoptosis (red + green) ([4]; staurosporine treated Jurkat cells, red + green): 25% | Kd [6]: < 0.1 nM | uptake / labeling of cells in confocal microscopy [5]: green membrane staining
